In patent publication US12410207B2, “Galactoside inhibitor of galectins” (GALECTO BIOTECH AB, priority 2019, dated 2025):

Tests used:
[1] = target: Galectin-1 (Homo sapiens, UniProt P09382); assay: Fluorescence anisotropy assay, inhibition of galectin / fluorescein tagged saccharide probe interaction; conditions: compound as inhibitor of probe binding
Experimental: (§1) The affinity of Example 1-45 for galectins were determined by a fluorescence anisotropy assay where the compound was used as an inhibitor of the interaction between galectin and a fluorescein tagged saccharide probe as described Sörme, P., Kahl-Knutsson, B., Huflejt, M., Nilsson, U. J., and Leffler H. (2004) Fluorescence polarization as an analytical tool to evaluate galectin-ligand interactions. Anal. Biochem. 334: 36-47, (Sorme et al., 2004) and Monovalent interactions of Galectin-1 By Salomonsson, Emma; Larumbe, Amaia; Tejler, Johan; Tullberg, Erik; Rydberg, Hanna; Sundin, Anders; Khabut, Areej; Frejd, Torbjorn; Lobsanov, Yuri D.; Rini, James M.; et al, From Biochemistry (2010), 49(44), 9518-9532, (Salomonsson et al., 2010).

[2] = target: Galectin-3 (Homo sapiens, UniProt P17931); assay: as above; conditions: compound as inhibitor of probe binding
Sequence of Galectin-3 (P17931 whole entry, species assumed): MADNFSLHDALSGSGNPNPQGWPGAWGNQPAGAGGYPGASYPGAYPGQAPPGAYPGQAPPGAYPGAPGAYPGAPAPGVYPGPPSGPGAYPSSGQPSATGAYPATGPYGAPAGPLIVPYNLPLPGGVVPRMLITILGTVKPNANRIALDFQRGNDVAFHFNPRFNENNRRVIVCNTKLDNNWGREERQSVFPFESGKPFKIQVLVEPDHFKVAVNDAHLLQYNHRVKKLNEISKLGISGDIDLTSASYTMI
Experimental: as §1

[3] = system: MDCK-MDR1; assay: MDCK-MDR1 in vitro cell model of passage over Blood Brain Barrier; assay type: in vitro ADME; conditions: MDCK-MDR1, result in words
[4] = system: MDR1; assay: as above; assay type: in vitro ADME; conditions: dog
[5] = MDCK-MDR1, first column, headed A > B
[6] = MDCK-MDR1, second column, also headed A > B

Sequence of Galectin-1 (P09382 whole entry, species assumed): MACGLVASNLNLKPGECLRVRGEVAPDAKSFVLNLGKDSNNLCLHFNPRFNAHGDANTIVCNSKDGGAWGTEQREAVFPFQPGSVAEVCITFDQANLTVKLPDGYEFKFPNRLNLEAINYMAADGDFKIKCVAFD

SMILES	Kd [1]	Kd [2]	efflux and uptake in in vitro cell model of BBB passage [3]	Papp [4, 5]	Papp [4, 6]
N#Cc1ncc(Cl)cc1S[C@H]1OC(CO)[C@H](O)C(n2cc(-c3cc(F)c(F)c(F)c3)cn2)C1O (stereo partly drawn) [Example 12, 5-Chloro-2-cyanopyridin-3-yl 3-deoxy-3-[4-(3,4,5-trifluorophenyl)-1H-1,2-pyrazol-1-yl]-1-thio-α-D-galactopyranoside]	8.2 µM	0.021 µM	low or no efflux and high uptake	12 ×10⁻⁶ cm/s	51 ×10⁻⁶ cm/s
OCC1O[C@H](Sc2cncc(Cl)c2)C(O)C(n2cc(-c3cc(F)c(Cl)c(F)c3)cn2)[C@H]1O (stereo partly drawn) [Example 2, 5-Chloropyridin-3-yl 3-[4-(4-chloro-3,5-difluorophenyl)-1H-1,2-pyrazol-1-yl]-3-deoxy-1-thio-α-D-galactopyranoside]	27.6 µM	0.02 µM	low or no efflux and high uptake	25 ×10⁻⁶ cm/s	50 ×10⁻⁶ cm/s
COC1C(n2cc(-c3cc(F)c(F)c(F)c3)cn2)[C@@H](O)C(CO)O[C@@H]1Sc1cncc(Br)c1 (stereo partly drawn) [Example 33, 5-Bromopyridin-3-yl 3-deoxy-3-[4-(3,4,5-trifluorophenyl)-1H-1,2-pyrazol-1-yl]-2-O-methyl-1-thio-α-D-galactopyranoside]	3.6 µM	0.022 µM	low or no efflux and high uptake	34 ×10⁻⁶ cm/s	23 ×10⁻⁶ cm/s
N#Cc1ncc(Br)cc1S[C@H]1OC(CO)[C@H](O)C(n2cc(-c3cc(F)c(F)c(F)c3)cn2)C1O (stereo partly drawn) [Example 15, 5-Bromo-2-cyanopyridin-3-yl 3-deoxy-3-[4-(3,4,5-trifluorophenyl)-1H-1,2-pyrazol-1-yl]-1-thio-α-D-galactopyranoside]	4.8 µM	0.011 µM	low or no efflux and high uptake	12 ×10⁻⁶ cm/s	53 ×10⁻⁶ cm/s
OCC1O[C@H](Sc2cncc(Cl)c2)C(O)C(n2cc(-c3ncco3)cn2)[C@H]1O (stereo partly drawn) [Example 24, 5-Chloropyridin-3-yl 3-deoxy-3-[4-(oxazol-2-yl)-1H-1,2-pyrazol-1-yl]-1-thio-α-D-galactopyranoside]	6.1 µM	10.3 µM	–	–	–
N#Cc1ncc(Cl)cc1S[C@H]1OC(CO)[C@H](O)C(n2cc(-c3nc(Cl)cs3)cn2)C1O (stereo partly drawn) [Example 30, 5-Chloro-2-cyanopyridin-3-yl 3-[4-(4-chlorothiazol-2-yl)-1H-1,2-pyrazol-1-yl]-3-deoxy-1-thio-α-D-galactopyranoside]	0.51 µM	1.1 µM	–	–	–
OC[C@H]1O[C@H](Sc2ccc(Cl)c(Cl)c2)[C@H](O)[C@@H](c2nc(-c3cc(F)c(F)c(F)c3)cs2)[C@H]1O [Example 40, 3,4-Dichlorophenyl 3-deoxy-3-[4-(3,4,5-trifluorophenyl)-thiazol-2-yl]-1-thio-α-D-galactopyranoside]	> 100 µM	2 µM	–	–	–
C#Cc1cncc(S[C@H]2OC(CO)[C@H](O)C(n3cc(-c4cc(F)c(Cl)c(F)c4)cn3)C2O)c1 (stereo partly drawn) [Example 7, 5-Ethynylpyridin-3-yl 3-[4-(4-chloro-3,5-difluorophenyl)-1H-1,2-pyrazol-1-yl]-3-deoxy-1-thio-α-D-galactopyranoside]	30 µM	0.014 µM	–	–	–
OCC1O[C@H](Sc2cncc(Br)c2)C(O)C(n2cc(-c3cc(F)c(Cl)c(F)c3)cn2)[C@H]1O (stereo partly drawn) [Example 6, 5-Bromopyridin-3-yl 3-[4-(4-chloro-3,5-difluorophenyl)-1H-1,2-pyrazol-1-yl]-3-deoxy-1-thio-α-D-galactopyranoside]	23 µM	0.016 µM	low or no efflux and high uptake	18 ×10⁻⁶ cm/s	52 ×10⁻⁶ cm/s
OCC1O[C@H](Sc2cncc(Cl)c2)C(O)C(n2cnc(-c3cc(F)c(F)c(F)c3)c2)[C@H]1O (stereo partly drawn) [Example 36, 5-Chloropyridin-3-yl 3-deoxy-3-[4-(3,4,5-trifluorophenyl)-1H-1,3-imidazol-1-yl]-1-thio-α-D-galactopyranoside]	12.7 µM	0.067 µM	–	–	–
COC1C(n2cc(-c3csc(N)n3)cn2)[C@@H](O)C(CO)O[C@@H]1Sc1ccc(Cl)c(Cl)c1 (stereo partly drawn) [Example 43, 3,4-Dichlorophenyl 3-[4-(2-aminothiazol-4-yl)-1H-1,2-pyrazol-1-yl]-3-deoxy-2-O-methyl-1-thio-α-D-galactopyranoside]	2.1 µM	11 µM	–	–	–
Cc1c(F)cc(-c2cnn(C3C(O)[C@@H](Sc4cncc(Cl)c4)OC(CO)[C@@H]3O)c2)cc1F (stereo partly drawn) [Example 4, 5-Chloropyridin-3-yl 3-deoxy-3-[4-(3,5-difluoro-4-methylphenyl)-1H-1,2-pyrazol-1-yl]-1-thio-α-D-galactopyranoside]	43 µM	0.009 µM	–	–	–
OC[C@H]1O[C@H](Sc2ccc(Cl)c(Cl)c2)[C@H](O)[C@@H](c2nc(-c3cc(F)c(F)c(F)c3)co2)[C@H]1O [Example 39, 3,4-Dichlorophenyl 3-deoxy-3-[4-(3,4,5-trifluorophenyl)-oxazol-2-yl]-1-thio-α-D-galactopyranoside]	> 100 µM	0.3 µM	–	–	–
OCC1O[C@H](Sc2cccc(Cl)c2)C(O)C(n2cc(-c3cccc(F)c3)cn2)[C@H]1O (stereo partly drawn) [Example 1, 3-Chlorophenyl 3-deoxy-3-[4-(3-fluorophenyl)-1H-1,2-pyrazol-1-yl]-1-thio-α-D-galactopyranoside]	19.9 µM	0.27 µM	–	–	–

More lines, in order of falling Kd [1], values ahead:

Kd [1]	Kd [2]	efflux and uptake in in vitro cell model of BBB passage [3]	Papp [4, 5]	Papp [4, 6]	SMILES
48 µM	0.02 µM	–	–	–	N#Cc1ccc(Cl)cc1S[C@H]1OC(CO)[C@H](O)C(n2cc(-c3cc(F)c(Cl)c(F)c3)cn2)C1O (stereo partly drawn) [Example 8, 5-Chloro-2-cyanophenyl 3-[4-(4-chloro-3,5-difluorophenyl)-1H-1,2-pyrazol-1-yl]-3-deoxy-1-thio-α-D-galactopyranoside]
19.7 µM	0.029 µM	low or no efflux and high uptake	28 ×10⁻⁶ cm/s	49 ×10⁻⁶ cm/s	OCC1O[C@H](Sc2cncc(Cl)c2)C(O)C(n2cc(-c3ccc(Cl)c(F)c3)cn2)[C@H]1O (stereo partly drawn) [Example 17, 5-Chloropyridin-3-yl 3-[4-(4-chloro-3-fluorophenyl)-1H-1,2-pyrazol-1-yl]-3-deoxy-1-thio-α-D-galactopyranoside]
16.5 µM	0.023 µM	low or no efflux and high uptake	35 ×10⁻⁶ cm/s	37 ×10⁻⁶ cm/s	C#Cc1cncc(S[C@H]2OC(CO)[C@H](O)C(n3cc(-c4cc(F)c(F)c(F)c4)cn3)C2OC)c1 (stereo partly drawn) [Example 34, 5-Ethynylpyridin-3-yl 3-deoxy-3-[4-(3,4,5-trifluorophenyl)-1H-1,2-pyrazol-1-yl]-2-O-methyl-1-thio-α-D-galactopyranoside]
12.8 µM	0.028 µM	low or no efflux and high uptake	14 ×10⁻⁶ cm/s	39 ×10⁻⁶ cm/s	OCC1O[C@H](Sc2cncc(Cl)c2)C(O)C(n2cc(-c3cc(F)c(F)c(F)c3)cn2)[C@H]1O (stereo partly drawn) [Example 3, 5-Chloropyridin-3-yl 3-deoxy-3-[4-(3,4,5-trifluorophenyl)-1H-1,2-pyrazol-1-yl]-1-thio-α-D-galactopyranoside]
9.8 µM	0.024 µM	–	–	–	N#Cc1ccc(Cl)cc1S[C@H]1OC(CO)[C@H](O)C(n2cc(-c3cc(F)c(F)c(F)c3)cn2)C1O (stereo partly drawn) [Example 11, 5-Chloro-2-cyanophenyl 3-deoxy-3-[4-(3,4,5-trifluorophenyl)-1H-1,2-pyrazol-1-yl]-1-thio-α-D-galactopyranoside]
6.7 µM	0.017 µM	low or no efflux and high uptake	30 ×10⁻⁶ cm/s	33 ×10⁻⁶ cm/s	COC1C(n2cc(-c3cc(F)c(F)c(F)c3)cn2)[C@@H](O)C(CO)O[C@@H]1Sc1cncc(Cl)c1 (stereo partly drawn) [Example 32, 5-Chloropyridin-3-yl 3-deoxy-3-[4-(3,4,5-trifluorophenyl)-1H-1,2-pyrazol-1-yl]-2-O-methyl-1-thio-α-D-galactopyranoside]
3.4 µM	9 µM	–	–	–	OCC1O[C@H](Sc2cncc(Cl)c2)C(O)C(n2cc(-c3ncc[nH]3)cn2)[C@H]1O (stereo partly drawn) [Example 23, 5-Chloropyridin-3-yl 3-deoxy-3-[4-(1H-imidazol-2-yl)-1H-1,2-pyrazol-1-yl]-1-thio-α-D-galactopyranoside]
1.3 µM	9.6 µM	–	–	–	OCC1O[C@H](Sc2cncc(Cl)c2)C(O)C(n2cc(-c3cscn3)cn2)[C@H]1O (stereo partly drawn) [Example 25, 5-Chloropyridin-3-yl 3-deoxy-3-[4-(thiazol-4-yl)-1H-1,2-pyrazol-1-yl]-1-thio-α-D-galactopyranoside]
